# Results published in ChEMBL document CHEMBL1139627, “A new orally bioavailable dual adenosine A2B/A3 receptor antagonist with therapeutic potential” (Bioorg Med Chem Lett, 2005).
# Tests used:
# Adenosine receptor A1 = target: T1, Adenosine receptor A1 (Homo sapiens, UniProt P30542); experiment: Displacement of [3H]DPCPX from human adenosine A1 receptors transfected in CHO cells; type: cell-based
# T1 sequence (P30542 whole entry): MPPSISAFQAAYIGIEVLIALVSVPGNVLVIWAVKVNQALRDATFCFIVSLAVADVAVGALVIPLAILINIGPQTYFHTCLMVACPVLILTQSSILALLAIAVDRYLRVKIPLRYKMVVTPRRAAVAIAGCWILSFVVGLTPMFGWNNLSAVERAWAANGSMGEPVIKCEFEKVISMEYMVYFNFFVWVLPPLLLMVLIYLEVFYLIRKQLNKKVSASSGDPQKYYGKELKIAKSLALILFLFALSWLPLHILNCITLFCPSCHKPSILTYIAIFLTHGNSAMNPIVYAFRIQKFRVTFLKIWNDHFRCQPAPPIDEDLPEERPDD
# Adenosine receptor A2a = Adenosine receptor A2a (Homo sapiens, UniProt P29274); experiment: Displacement of [3H]ZM-241,385 from human adenosine A2a receptors transfected in HEK 293 cells; type: cell-based, HEK293
# Adenosine receptor A3 = target: T2, Adenosine receptor A3 (Homo sapiens, UniProt P0DMS8); experiment: Displacement of [125I]-AB-MECA from human adenosine A3 receptors transfected in CHO cells; type: cell-based
# T2 sequence (P0DMS8 whole entry): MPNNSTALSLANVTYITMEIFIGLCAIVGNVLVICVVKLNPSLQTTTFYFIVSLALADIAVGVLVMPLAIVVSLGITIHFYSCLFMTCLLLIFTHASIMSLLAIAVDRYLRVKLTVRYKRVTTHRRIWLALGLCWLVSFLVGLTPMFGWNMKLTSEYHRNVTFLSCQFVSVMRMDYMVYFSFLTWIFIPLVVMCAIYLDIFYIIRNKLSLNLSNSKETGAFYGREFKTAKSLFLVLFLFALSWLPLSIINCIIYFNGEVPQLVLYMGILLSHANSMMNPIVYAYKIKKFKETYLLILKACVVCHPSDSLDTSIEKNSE
# [1] = target: T3, Adenosine receptor A2b (Homo sapiens) (UniProt P29275); experiment: Inhibition of luciferase production elicited by NECA by compound in CHO cells transfected with human adenosine A2b receptor and a luciferase expressing reporter plasmid in a reporter gene assay; type: cell-based
# T3 sequence (whole entry): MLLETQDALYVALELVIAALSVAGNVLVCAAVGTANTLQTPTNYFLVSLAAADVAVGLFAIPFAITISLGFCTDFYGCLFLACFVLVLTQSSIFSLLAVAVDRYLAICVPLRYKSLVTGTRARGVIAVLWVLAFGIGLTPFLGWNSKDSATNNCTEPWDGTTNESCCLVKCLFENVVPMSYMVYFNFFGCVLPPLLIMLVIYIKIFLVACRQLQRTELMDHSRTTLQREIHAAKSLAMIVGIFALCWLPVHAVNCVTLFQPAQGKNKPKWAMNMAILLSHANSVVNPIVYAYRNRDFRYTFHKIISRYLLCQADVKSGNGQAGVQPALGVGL
# [2] = Time to reach Cmax after oral administration at 1 mL/kg concentration in wistar rat; type: ADME, organism-based; conditions: in vivo
# [3] = Volume abserved at study state after intra venous administration of 2:1 PEG200/0.1 M phosphate buffer at 0.1 mL/kg concentration in wistar rat; type: ADME, organism-based; conditions: in vivo, iv, read-out: Vss
# [4] = Half life of trhe compound after oral administration at 1 mL/kg concentration in wistar rat; type: ADME, organism-based; conditions: in vivo
# [5] = Clearance in wistar rat was determined by intra venous administration of 2:1 PEG200/0.1 M phosphate buffer at 0.1 mL/kg concentration; type: ADME, organism-based; conditions: in vivo, iv
# [6] = Bioavailability of compound after oral administration at 1 mL/kg concentration in wistar rat; type: ADME, organism-based; conditions: in vivo, read-out: BAV
# [7] = Half life in wistar rat was determined by intra venous administration of 2:1 PEG200/0.1 M phosphate buffer at 0.1 mL/kg concentration; type: ADME; conditions: in vivo, iv
# [8] = Maximum concentration in wistar rat at 1 mL/kg concentration of compound after oral administration; type: ADME, organism-based; design: dose 1 mL/kg, route oral; conditions: in vivo
# Sequence of Adenosine receptor A2a (P29274 whole entry): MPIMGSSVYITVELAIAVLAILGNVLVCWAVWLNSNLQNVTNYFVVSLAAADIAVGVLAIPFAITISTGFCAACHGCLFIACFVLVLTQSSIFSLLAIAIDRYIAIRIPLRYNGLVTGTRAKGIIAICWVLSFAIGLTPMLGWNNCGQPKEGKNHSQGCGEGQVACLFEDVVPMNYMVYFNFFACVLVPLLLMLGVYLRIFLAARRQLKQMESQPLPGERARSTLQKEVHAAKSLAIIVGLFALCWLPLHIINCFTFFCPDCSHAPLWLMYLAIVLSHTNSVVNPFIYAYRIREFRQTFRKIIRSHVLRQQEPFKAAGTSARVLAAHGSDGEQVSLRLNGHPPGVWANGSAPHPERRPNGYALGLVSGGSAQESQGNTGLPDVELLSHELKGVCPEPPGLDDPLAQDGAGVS
SMILES,Ki (Adenosine receptor A1) [nM],Ki (Adenosine receptor A2a) [nM],Ki (Adenosine receptor A3) [nM],Kb [1] [nM],Tmax [2] [min],Vd [3] [L/kg],half-life [4] [min],clearance [5] [mL/min/kg],bioavailability [6] [%],half-life [7] [min],Cmax [8] [nM]
Cc1cccc(Nc2nc(-c3cccc(C#N)c3)c(-n3ccnc3)s2)n1,8,2700,44,92,,,,,,,
Cc1cccc(Nc2nc(-c3cccc(C#N)c3)c(-n3ccnc3C)s2)n1,224,175,419,10,,,,,,,
Cc1cccc(Nc2nc(-c3cccc(C#N)c3)c(-n3cncn3)s2)n1,> 10000,> 10000,37,20,,,,,,,
N#Cc1cccc(-c2nc(Nc3cnccn3)sc2-n2cncn2)c1,2090,3580,,12,,,,,,,
CC(=O)Nc1nc(-c2cccc(C#N)c2)c(-n2cncn2)s1,2840,5610,134,365,,,,,,,

# Continued, values first:
Ki (Adenosine receptor A1) [nM],Ki (Adenosine receptor A2a) [nM],Ki (Adenosine receptor A3) [nM],Kb [1] [nM],Tmax [2] [min],Vd [3] [L/kg],half-life [4] [min],clearance [5] [mL/min/kg],bioavailability [6] [%],half-life [7] [min],Cmax [8] [nM],SMILES
1760,2020,24,53,,,,,,,,N#Cc1cccc(-c2nc(Nc3ccccn3)sc2-n2cncn2)c1
46,349,11,7,,,,,,,,N#Cc1cccc(-c2nc(Nc3cnccn3)sc2-n2ccnc2)c1
,4160,304,62,,,,,,,,N#Cc1cccc(-c2nc(Nc3ccncc3)sc2-n2cncn2)c1
1530,2570,698,86,,,,,,,,N#Cc1cccc(-c2nc(Nc3cccnc3)sc2-n2cncn2)c1
197,1670,10,3,39.3,3.02,191,94.4,30.2,29,560,Cc1nccn1-c1sc(Nc2cnccn2)nc1-c1cccc(C#N)c1
560,2700,124,92,,,,,,,,N#Cc1cccc(-c2nc(Nc3cccnc3)sc2-n2ccnc2)c1
